For assay [1], the target named is T1, ΔF508-CFTR (Homo sapiens, UniProt P13569, DEL508-508).
T1 construct: Primary lung epithelial cells homozygous for the Cystic Fibrosis-causing ΔF508 mutation were differentiated; endogenous in cells; host or cells: primary human lung (bronchial) epithelial cells homozygous for ΔF508, differentiated at air-liquid interface
The assay is described as follows: Ussing measurements (short-circuit current, CFTRinh-172-inhibitable). The format is cell-based. The settings on record: compound at 10 uM and VX-809 at 3 uM, relative to VX-809 (3 uM); hBEs homozygous for ΔF508, 24 hours treatment; CFTRinh-172-inhibitable current. As for the experimental part:
As discussed above, Ussing measurements can be used to measure CFTR activity. In this method, primary lung epithelial cells (hBEs) homozygous for the Cystic Fibrosis-causing ΔF508 mutation were differentiated for a minimum of 4 weeks in an air-liquid interface on SnapWell filter plates prior to the Ussing measurements. Cells were apically mucus-washed for 30 minutes prior to treatment with compounds. The basolateral media was removed and replaced with media containing the compound of interest diluted to its final concentration from DMSO stocks. Treated cells were incubated at 37° C. and 5% CO2 for 24 hours. At the end of the treatment period, the cells on filters were transferred to the Ussing chamber and equilibrated for 30 minutes. The short-circuit current was measured in voltage clamp-mode (Vhold=0 mV), and the entire assay was conducted at a temperature of 36° C.-36.5° C. Once the voltages stabilized, the chambers were clamped, and data was recorded by pulse readings every 5 seconds. Following baseline current stabilization, the following additions were applied and the changes in current and resistance of the cells was monitored: • 1. Benzamil to the apical chamber to inhibit ENaC sodium channel. • 2. Forskolin to both chambers to activate ΔF508-CFTR by phosphorylation. • 3. Genistein to both chambers to potentiate ΔF508-CFTR channel opening. • 4. CFTRinh-172 to the apical chamber to inhibit ΔF508-CFTR Cl— conductance. The inhibitable current (that current that is blocked by CFTRinh-172) is measured as the specific activity of the ΔF508-CFTR channel, and increases in response to compound in this activity over that observed in vehicle-treated samples are identified as the correction of ΔF508-CFTR function imparted by the compound tested.

Assay [2] concerns the target T1, ΔF508-CFTR. The assay can be described thus: hBE equivalent current (Ieq) assay. The format is cell-based. Particulars: compound at 10 uM and VX-809 at 1 uM, relative to VX-809 (1 uM); primary lung epithelial cells homozygous for ΔF508, 24 hours treatment; AUC of equivalent chloride current. Here is the method:
ii. hBE Equivalent Current (Ieq) Assay
Primary lung epithelial cells homozygous for the Cystic Fibrosis-causing ΔF508 mutation were differentiated for a minimum of 4 weeks in an air-liquid interface on Costar 24 well HTS filter plates prior to the equivalent current (Ieq) measurements. Cells were apically mucus-washed for 30 minutes 24 h prior to treatment with compounds. The basolateral media was removed and replaced with media containing the compound of interest diluted to its final concentration from DMSO stocks. Treated cells were incubated at 37° C. and 5% CO2 for 24 hours. At the end of the treatment period, the media was changed to the Ieq experimental solution for 30 minutes before the experiment and plates are maintained in a CO2-free incubator during this period. The plates containing the cells were then placed in pre-warmed heating blocks at 36° ° C.±0.5 for 15 minutes before measurements are taken. The transepithelial voltage (VT) and conductance (GT) were measured using a custom 24 channel current clamp (TECC-24) with 24 well electrode manifold. The Ieq assay measurements were made following additions with standardized time periods: • 1. The baseline VT and GT values were measured for approximately 20 minutes. • 2. Benzamil was added to block ENaC for 15 minutes. • 3. Forskolin plus VX-770 (ivacaftor) were added to maximally activate ΔF508-CFTR for 27 minutes. • 4. Bumetanide was added to inhibit the NaK2Cl cotransporter and shut-off secretion of chloride.
The activity data captured was the area under the curve (AUC) for the traces of the equivalent chloride current. The AUC was collected from the time of the forskolin/VX-770 addition until the inhibition by bumetanide addition. Correction in response to compound treatment was scored as the increase in the AUC for compound-treated samples over that of vehicle-treated samples.

Molecules are shown by their SMILES. Marks after values point to notes of the source that are not given here.

T1 sequence (P13569 with tags, fused parts or gaps DEL508-508): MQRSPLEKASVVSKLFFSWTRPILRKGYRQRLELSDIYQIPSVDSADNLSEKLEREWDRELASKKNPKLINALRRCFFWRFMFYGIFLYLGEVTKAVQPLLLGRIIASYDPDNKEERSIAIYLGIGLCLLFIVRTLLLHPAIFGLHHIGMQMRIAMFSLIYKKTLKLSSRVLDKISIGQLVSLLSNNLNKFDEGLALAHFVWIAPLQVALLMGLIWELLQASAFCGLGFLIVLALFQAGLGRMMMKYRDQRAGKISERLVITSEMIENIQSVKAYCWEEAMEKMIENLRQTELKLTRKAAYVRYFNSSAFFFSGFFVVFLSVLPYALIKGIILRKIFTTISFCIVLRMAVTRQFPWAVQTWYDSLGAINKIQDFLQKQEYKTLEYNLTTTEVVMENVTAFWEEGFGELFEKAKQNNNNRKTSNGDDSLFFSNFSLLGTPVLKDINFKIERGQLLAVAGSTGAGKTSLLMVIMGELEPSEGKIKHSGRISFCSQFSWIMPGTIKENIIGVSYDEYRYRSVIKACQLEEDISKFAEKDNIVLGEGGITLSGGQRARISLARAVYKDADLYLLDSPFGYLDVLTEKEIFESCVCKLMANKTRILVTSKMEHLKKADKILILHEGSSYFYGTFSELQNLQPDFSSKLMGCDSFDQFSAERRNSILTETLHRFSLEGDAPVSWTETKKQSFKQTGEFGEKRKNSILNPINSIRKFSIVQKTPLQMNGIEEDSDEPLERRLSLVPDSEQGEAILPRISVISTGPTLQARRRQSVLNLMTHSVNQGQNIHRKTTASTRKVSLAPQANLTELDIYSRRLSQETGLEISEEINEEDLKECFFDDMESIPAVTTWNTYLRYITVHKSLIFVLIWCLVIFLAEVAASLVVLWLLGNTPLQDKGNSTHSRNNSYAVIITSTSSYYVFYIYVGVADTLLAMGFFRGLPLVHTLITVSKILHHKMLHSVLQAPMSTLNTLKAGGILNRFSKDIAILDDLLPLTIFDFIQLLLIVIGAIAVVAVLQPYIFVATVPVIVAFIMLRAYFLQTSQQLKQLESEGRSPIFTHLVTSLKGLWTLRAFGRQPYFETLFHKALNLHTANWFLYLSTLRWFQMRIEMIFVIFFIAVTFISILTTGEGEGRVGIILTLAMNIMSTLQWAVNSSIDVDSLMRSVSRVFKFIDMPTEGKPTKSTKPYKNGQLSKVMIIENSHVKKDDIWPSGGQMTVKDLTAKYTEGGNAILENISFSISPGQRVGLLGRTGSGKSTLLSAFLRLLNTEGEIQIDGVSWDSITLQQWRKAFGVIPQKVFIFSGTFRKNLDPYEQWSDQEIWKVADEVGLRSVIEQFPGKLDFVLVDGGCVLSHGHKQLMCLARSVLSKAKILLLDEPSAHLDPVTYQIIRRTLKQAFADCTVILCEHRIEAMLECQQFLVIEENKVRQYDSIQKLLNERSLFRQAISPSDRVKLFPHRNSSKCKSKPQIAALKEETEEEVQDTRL

On to `O=C(N[C@H]1C[C@H](n2nncc2CO)C1)c1cc(-c2ccccc2)on1`, for which the “Ussing (% VX-809)” value at ΔF508-CFTR [1] was “## (activity ≥200% of VX-809 (3 uM) with compound at 10 uM and VX-809 at 3 uM)”. The “Ieq (% VX-809)” value on ΔF508-CFTR [2] is recorded as “++ *”.
On to `C[C@H](O)c1cnnn1[C@H]1C[C@H](NC(=O)c2cc(-c3ccccc3)on2)C1`, for which the “Ussing (% VX-809)” value at ΔF508-CFTR [1] was “# (activity 100-200% of VX-809 (3 uM) with compound at 10 uM and VX-809 at 3 uM)”. In addition, at ΔF508-CFTR [2], the “Ieq (% VX-809)” value is “** (activity ≥200% of VX-809 (1 uM) with compound at 10 uM and VX-809 at 1 uM)”.
With `C[C@H](O)c1nnc([C@H]2C[C@H](NC(=O)c3cc(-c4ccccc4)on3)C2)s1`, the “Ussing (% VX-809)” value at ΔF508-CFTR [1] is “## (activity ≥200% of VX-809 (3 uM) with compound at 10 uM and VX-809 at 3 uM)”. In addition, the “Ieq (% VX-809)” value on ΔF508-CFTR [2] is “** (activity ≥200% of VX-809 (1 uM) with compound at 10 uM and VX-809 at 1 uM)”.
In the case of `C[C@@H](O)c1nnc([C@H]2C[C@H](NC(=O)c3cc(-c4ccccc4)on3)C2)s1`, the “Ussing (% VX-809)” value at ΔF508-CFTR [1] is “## (activity ≥200% of VX-809 (3 uM) with compound at 10 uM and VX-809 at 3 uM)”. The “Ieq (% VX-809)” value at ΔF508-CFTR [2] was “** (activity ≥200% of VX-809 (1 uM) with compound at 10 uM and VX-809 at 1 uM)”.
Turning to `C[C@@H](O)c1nnc(C2CC(NC(=O)c3cc(-c4ccccc4)on3)C2)o1` (stereo partly shown), the “Ussing (% VX-809)” value at ΔF508-CFTR [1] is “## (activity ≥200% of VX-809 (3 uM) with compound at 10 uM and VX-809 at 3 uM)”. Further, the “Ieq (% VX-809)” value on ΔF508-CFTR [2] was “** (activity ≥200% of VX-809 (1 uM) with compound at 10 uM and VX-809 at 1 uM)”.
Consider `C[C@H](O)c1nnc(C2CC(NC(=O)c3cc(-c4ccccc4)on3)C2)o1` (stereo partly shown), for which the “Ussing (% VX-809)” value at ΔF508-CFTR [1] was “## (activity ≥200% of VX-809 (3 uM) with compound at 10 uM and VX-809 at 3 uM)”. The “Ieq (% VX-809)” value at ΔF508-CFTR [2] is “** (activity ≥200% of VX-809 (1 uM) with compound at 10 uM and VX-809 at 1 uM)”.
`C[C@@H](O)c1nnc([C@H]2C[C@@H](NC(=O)c3cc(-c4ccccc4)on3)C2)o1`: on ΔF508-CFTR [1], the “Ussing (% VX-809)” value is “## (activity ≥200% of VX-809 (3 uM) with compound at 10 uM and VX-809 at 3 uM)”. On ΔF508-CFTR [2], the “Ieq (% VX-809)” value is “** (activity ≥200% of VX-809 (1 uM) with compound at 10 uM and VX-809 at 1 uM)”.
For the molecule `C[C@H](O)c1nnc([C@H]2C[C@@H](NC(=O)c3cc(-c4ccccc4)on3)C2)o1`, the “Ussing (% VX-809)” value on ΔF508-CFTR [1] was “## (activity ≥200% of VX-809 (3 uM) with compound at 10 uM and VX-809 at 3 uM)”. The “Ieq (% VX-809)” value on ΔF508-CFTR [2] was “** (activity ≥200% of VX-809 (1 uM) with compound at 10 uM and VX-809 at 1 uM)”.

Values taken from patent US10738040B2, “Compounds, compositions, and methods for increasing CFTR activity” (Proteostasis Therapeutics, Inc., priority 2014, dated 2020).
